In ChEMBL document CHEMBL1136193, “Identification of a new chemical class of potent angiogenesis inhibitors based on conformational considerations and database searching” (Bioorg Med Chem Lett, 2003):

Legend:
[1] = molecular target: Vascular endothelial growth factor receptor 2 (Homo sapiens, UniProt P35968); assay: Inhibition of Vascular endothelial growth factor receptor 2
[2] = molecular target: Vascular endothelial growth factor receptor 1 (Homo sapiens, UniProt P17948); assay: Inhibition of vascular endothelial growth factor receptor 1
Vascular endothelial growth factor receptor 1, sequence (P17948 whole entry): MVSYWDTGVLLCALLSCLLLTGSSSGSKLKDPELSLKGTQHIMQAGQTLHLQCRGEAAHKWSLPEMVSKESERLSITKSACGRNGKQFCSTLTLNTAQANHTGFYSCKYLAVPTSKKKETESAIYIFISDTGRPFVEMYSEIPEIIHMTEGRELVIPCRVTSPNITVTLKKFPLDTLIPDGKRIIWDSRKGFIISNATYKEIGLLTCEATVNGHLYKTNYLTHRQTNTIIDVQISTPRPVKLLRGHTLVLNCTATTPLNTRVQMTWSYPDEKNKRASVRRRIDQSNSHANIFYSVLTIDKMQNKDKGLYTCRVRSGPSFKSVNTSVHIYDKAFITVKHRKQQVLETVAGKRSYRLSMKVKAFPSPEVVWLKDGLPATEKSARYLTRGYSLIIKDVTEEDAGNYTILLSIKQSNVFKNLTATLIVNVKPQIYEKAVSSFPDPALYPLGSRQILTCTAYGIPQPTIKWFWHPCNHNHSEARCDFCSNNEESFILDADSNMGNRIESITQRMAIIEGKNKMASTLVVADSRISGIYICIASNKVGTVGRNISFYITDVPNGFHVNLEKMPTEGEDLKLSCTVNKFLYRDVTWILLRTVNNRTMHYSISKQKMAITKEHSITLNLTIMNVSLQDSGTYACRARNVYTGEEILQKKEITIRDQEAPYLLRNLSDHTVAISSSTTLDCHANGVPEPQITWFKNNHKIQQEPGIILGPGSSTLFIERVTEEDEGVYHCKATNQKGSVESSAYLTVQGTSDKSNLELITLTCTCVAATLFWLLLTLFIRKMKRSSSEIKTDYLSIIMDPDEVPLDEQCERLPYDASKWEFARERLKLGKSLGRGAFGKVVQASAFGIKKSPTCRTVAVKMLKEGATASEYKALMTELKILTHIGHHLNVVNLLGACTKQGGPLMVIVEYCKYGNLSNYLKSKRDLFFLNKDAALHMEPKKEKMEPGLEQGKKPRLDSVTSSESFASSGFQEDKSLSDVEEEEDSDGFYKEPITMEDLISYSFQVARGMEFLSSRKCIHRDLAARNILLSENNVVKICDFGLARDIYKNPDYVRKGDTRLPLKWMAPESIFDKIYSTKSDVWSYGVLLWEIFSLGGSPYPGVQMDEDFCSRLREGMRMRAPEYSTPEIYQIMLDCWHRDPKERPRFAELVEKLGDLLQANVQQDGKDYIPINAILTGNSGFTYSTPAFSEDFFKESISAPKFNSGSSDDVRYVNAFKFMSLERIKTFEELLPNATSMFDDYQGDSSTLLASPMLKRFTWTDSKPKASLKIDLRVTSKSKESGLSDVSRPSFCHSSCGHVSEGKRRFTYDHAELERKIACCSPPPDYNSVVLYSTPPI

[3] = molecular target: Hepatocyte growth factor receptor (Homo sapiens, UniProt P08581); assay: Inhibition of Met proto-oncogene tyrosine kinase
[4] = molecular target: cAMP-dependent protein kinase (PKA) (Homo sapiens, UniProt P22694+P17612+P22612); assay: Inhibition of Protein kinase A; format: protein assay
[5] = molecular target: Insulin-like growth factor 1 receptor (Homo sapiens, UniProt P08069); assay: Inhibition of Insulin-like growth factor I receptor
Insulin-like growth factor 1 receptor, sequence (P08069 31-736 limits assumed): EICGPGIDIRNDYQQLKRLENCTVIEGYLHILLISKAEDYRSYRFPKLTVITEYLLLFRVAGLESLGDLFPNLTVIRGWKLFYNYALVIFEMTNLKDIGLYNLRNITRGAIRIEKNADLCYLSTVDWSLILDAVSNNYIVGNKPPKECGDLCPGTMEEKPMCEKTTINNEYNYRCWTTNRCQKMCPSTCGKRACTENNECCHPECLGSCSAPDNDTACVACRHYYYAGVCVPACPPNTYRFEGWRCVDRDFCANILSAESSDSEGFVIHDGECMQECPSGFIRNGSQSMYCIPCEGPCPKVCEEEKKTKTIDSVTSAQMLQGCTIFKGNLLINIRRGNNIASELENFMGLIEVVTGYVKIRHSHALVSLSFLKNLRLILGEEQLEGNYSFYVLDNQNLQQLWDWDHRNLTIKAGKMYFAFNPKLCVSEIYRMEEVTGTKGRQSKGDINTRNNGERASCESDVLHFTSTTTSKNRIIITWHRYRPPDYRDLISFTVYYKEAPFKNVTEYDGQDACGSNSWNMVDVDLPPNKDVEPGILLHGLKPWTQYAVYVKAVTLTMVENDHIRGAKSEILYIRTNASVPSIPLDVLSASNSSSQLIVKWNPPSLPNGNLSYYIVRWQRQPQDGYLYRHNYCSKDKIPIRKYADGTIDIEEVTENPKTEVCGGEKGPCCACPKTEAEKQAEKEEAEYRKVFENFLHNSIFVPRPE
Insulin-like growth factor 1 receptor, sequence (P08069 741-1367 limits assumed): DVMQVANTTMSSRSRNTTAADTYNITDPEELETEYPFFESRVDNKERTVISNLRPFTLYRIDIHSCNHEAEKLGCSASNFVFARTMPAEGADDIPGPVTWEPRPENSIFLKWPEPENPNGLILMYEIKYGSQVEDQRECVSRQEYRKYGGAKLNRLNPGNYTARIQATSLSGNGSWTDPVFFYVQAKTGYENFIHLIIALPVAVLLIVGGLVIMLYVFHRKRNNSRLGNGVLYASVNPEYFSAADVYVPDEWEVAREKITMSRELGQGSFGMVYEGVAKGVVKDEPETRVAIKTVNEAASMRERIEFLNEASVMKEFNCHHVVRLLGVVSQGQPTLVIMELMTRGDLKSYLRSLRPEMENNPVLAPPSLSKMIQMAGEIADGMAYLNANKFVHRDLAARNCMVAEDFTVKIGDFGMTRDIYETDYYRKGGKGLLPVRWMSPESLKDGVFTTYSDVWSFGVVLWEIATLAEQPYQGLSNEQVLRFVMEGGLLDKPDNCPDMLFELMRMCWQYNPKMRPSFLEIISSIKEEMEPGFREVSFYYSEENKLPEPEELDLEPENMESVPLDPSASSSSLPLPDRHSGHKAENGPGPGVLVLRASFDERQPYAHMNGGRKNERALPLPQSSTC

[6] = molecular target: Mast/stem cell growth factor receptor Kit (Homo sapiens, UniProt P10721); assay: Inhibition of Proto-oncogene tyrosine-protein kinase Kit
Mast/stem cell growth factor receptor Kit, sequence (P10721 whole entry): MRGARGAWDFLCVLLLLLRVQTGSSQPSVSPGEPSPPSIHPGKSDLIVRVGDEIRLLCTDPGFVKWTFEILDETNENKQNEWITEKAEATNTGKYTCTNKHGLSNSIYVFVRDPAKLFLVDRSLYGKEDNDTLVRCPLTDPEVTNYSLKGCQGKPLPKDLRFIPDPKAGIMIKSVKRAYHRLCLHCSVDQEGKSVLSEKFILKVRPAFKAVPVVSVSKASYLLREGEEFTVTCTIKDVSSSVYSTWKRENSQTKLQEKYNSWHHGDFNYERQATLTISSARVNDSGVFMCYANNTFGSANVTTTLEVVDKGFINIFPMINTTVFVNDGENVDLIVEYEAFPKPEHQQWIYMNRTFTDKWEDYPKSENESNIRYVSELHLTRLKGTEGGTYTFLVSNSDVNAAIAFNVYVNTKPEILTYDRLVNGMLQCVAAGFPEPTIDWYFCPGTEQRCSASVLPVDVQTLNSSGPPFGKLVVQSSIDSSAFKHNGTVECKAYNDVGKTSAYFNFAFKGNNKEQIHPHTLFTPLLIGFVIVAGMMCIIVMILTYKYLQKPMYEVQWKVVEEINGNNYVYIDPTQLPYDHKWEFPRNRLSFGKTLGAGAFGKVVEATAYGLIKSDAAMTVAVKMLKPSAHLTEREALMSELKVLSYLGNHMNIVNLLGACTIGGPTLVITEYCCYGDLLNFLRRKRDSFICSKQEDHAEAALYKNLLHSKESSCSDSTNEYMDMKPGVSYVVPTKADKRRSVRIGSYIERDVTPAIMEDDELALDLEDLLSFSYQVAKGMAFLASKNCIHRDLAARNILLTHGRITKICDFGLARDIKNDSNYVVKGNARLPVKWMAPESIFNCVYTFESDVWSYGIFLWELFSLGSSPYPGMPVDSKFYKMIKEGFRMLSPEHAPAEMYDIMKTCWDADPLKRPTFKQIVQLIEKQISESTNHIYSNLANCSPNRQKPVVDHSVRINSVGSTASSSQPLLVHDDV

[7] = molecular target: Cyclin-dependent kinase 1 (Homo sapiens, UniProt P06493); assay: Inhibition of Cyclin-dependent kinase 1

Vascular endothelial growth factor receptor 2, sequence (P35968 whole entry): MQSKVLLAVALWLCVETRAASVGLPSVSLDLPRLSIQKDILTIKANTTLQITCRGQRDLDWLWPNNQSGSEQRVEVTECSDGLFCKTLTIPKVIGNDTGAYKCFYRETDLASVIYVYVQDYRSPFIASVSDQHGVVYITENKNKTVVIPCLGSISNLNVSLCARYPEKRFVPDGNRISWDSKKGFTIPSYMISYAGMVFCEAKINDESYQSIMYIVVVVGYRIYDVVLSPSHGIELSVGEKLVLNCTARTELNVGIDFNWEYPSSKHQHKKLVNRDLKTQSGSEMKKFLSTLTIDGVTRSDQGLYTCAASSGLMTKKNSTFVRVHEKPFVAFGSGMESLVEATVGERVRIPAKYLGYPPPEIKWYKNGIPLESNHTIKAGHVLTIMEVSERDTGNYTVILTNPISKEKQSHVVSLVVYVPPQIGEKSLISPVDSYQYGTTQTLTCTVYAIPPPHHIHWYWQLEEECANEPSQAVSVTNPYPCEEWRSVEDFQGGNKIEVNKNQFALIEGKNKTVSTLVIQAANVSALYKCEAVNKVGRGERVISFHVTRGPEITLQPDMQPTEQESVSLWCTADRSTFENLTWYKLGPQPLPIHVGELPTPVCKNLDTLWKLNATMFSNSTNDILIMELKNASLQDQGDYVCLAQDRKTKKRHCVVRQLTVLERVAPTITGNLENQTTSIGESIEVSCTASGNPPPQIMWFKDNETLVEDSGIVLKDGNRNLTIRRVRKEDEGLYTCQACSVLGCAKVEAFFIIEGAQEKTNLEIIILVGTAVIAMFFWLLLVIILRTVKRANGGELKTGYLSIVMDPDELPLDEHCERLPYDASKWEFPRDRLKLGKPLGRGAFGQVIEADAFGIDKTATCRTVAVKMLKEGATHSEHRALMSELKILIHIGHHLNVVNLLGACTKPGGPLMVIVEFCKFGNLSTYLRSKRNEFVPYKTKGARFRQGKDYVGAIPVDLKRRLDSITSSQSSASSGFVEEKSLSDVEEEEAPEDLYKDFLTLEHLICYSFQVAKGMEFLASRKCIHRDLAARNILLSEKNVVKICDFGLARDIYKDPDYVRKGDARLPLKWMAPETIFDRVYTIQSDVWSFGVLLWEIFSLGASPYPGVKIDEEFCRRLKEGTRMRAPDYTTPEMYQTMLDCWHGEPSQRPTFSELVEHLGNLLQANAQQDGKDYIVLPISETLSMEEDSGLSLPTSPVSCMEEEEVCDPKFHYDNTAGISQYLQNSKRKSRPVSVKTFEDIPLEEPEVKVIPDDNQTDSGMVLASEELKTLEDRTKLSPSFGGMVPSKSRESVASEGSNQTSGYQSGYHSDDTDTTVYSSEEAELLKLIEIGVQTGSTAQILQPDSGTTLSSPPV

IC50 [1] [µM]	IC50 [2] [µM]	IC50 [3] [µM]	IC50 [4] [µM]	IC50 [5] [µM]	IC50 [6] [µM]	IC50 [7] [µM]	SMILES
3.7	23						O=C(Nc1ccccc1F)c1ccccc1NCc1ccc(F)cc1
0.02		> 10	> 10	> 10	0.24	> 10	O=C(Nc1ccc(Cl)cc1)c1ccccc1NCc1ccncc1
